# Test results taken from US10912741B2, “Prevention of liver cancer with safranal-based formulations” (United Arab Emirates University, priority 2019, dated 2021).
# Marks after values point to notes of the source that are not given here.
# Experiments:
# [1] = system: iNOS; experiment: Immunohistochemical staining of liver sections, iNOS positive cells; type: in vivo, albino Wistar rats; details: mean±SEM, 8 rats
# Procedure: (§1) The experimental hepatocarcinogenesis model was developed according to a protocol by Espandiaria et al. that was adapted for our purposes. To initiate and promote hepatocarcinogenesis, diethylnitrosamine (DEN) and 2-acetylaminofluorene (2-AAF) were used, respectively. For hepatocarcinogenesis initiation in this model, a single DEN dose (200 mg/kg b.wt.) dissolved in saline was injected intraperitoneally. After initiation, all rats underwent one period of 5-days fasting, as mitotic proliferative stimuli. To promote hepatocarcinogenesis, 2-acetylaminofluorene (2-AAF) was introduced in the form of six daily intragastric doses (30 mg/kg in 1% Tween 80); two weeks after DEN treatment.
# Safranal at doses of 25 mg/kg by weight (b.wt.) and 50 mg/kg b.wt, was administrated orally to rats. These doses have been reported to suppress chemically-induced oxidative damage in rats. A total of 40 adult male albino Wistar rats were randomly divided into […] (n=8) and were subjected to different treatments. Group 1 (control) was orally administered distilled water (5 ml/kg b.wt.) throughout the experimental duration and were injected with a single dose of saline. Group 2 (Safranal only) was subjected to a safranal dose (50 mg/kg b.wt.) through oral administration for the duration of the experimental period. Hepatocarcinogenesis was induced by DEN and promoted by 2-AAF, as reported previously, in group 3 (HCC). Rats in protective groups (groups 4-5) were treated with low/high doses of saffron-based safranal suspensions, at the beginning of promotion periods and continued for 12 weeks. The low dosage treatment with safranal consisted of 25 mg/kg b.wt., and the high dosage treatment consisted of 50 mg/kg b.wt. The experimental design is illustrated in FIG. 1.
# For immunohistochemical staining, mounted sections were immersed in sodium citrate buffer (0.1 M, pH 6) and placed in a water bath for 15 minutes to unmask antigen epitopes. […] Ten fields were randomly selected to quantify positive cells, in individual samples (400×). […]
# [2] = system: HDAC; experiment: HDAC colorimetric assay in liver homogenate; type: in vivo, albino Wistar rats
# Procedure: as §1
# Safranal at doses of 25 mg/kg by weight (b.wt.) and 50 mg/kg b.wt, was administrated orally to rats. These doses have been reported to suppress chemically-induced oxidative damage in rats. A total of 40 adult male albino Wistar rats were randomly divided into […] (n=8) and were subjected to different treatments. Group 1 (control) was orally administered distilled water (5 ml/kg b.wt.) throughout the experimental duration and were injected with a single dose of saline. Group 2 (Safranal only) was subjected to a safranal dose (50 mg/kg b.wt.) through oral administration for the duration of the experimental period. […]
# [3] = Cell viability assay (CellTiter-Glo); type: cell-based, human; details: human, HepG2 cells, 1 mM safranal, read-out: reduction of cell viability
# Procedure: (§2) HepG2, were cultured in RPMI 1640 medium (HyClone, USA) and 1% of 100 U/ml penicillin and 100 ug/ml streptomycin (Sigma, USA) supplemented with 10% fetal bovine serum (Sigma, USA) at 37° C. in a humidified 5% CO2 atmosphere. Cells were sub-cultured each 4-6 days using trypsin 0.25% (Hyclone, USA).
# (§3) HepG2 cells were seeded in 96-well plates at the density of 10000 cells/well and grown in 100 uL of complete growth medium. Complete growth medium was replaced by serum-free medium after cells were allowed to attach for 24 hours; after which cells were incubated for at least 12 hours. Cells were incubated for 24 hours after treatment with various concentrations of safranal (1 mM, 0.3 mM, 0.1 mM, 0.03 mM, 0.01 mM) prepared from 10 mM stock solution. After incubation period, viability of HepG2 cells was assessed using CellTiter-Glo luminescent cell viability assay kit according to manufacturer's instruction (Promega, USA).
# [4] = system: HepG2 cells; experiment: Cell viability assay (CellTiter-Glo); type: cell-based, human; details: 0.01, 0.03, 0.1, 0.3, 1 mM, 24 hours
# Procedure: as §2, §3
# [5] = system: p-IkB in HepG2 cells; experiment: Western blotting, p-IkB; type: cell-based, human; details: starting at 24 hours of safranal treatment (1 mM)
# Procedure: as §2
# In 100 mm plates, HepG2 cells were seeded at a density of 2×10^4 in complete growth medium. Cells were allowed to attach for 24 hours, after which complete growth medium was replaced by serum-free medium. Cells were treated with safranal at a concentration of 1 mM (20 mM stock). Plates were incubated for 6, 12, 24, and 48 hours in a humidified 5% CO2 atmosphere at 37° C. At indicated times, 1 mL of cell supernatant was obtained from each plate and was stored at −80° C. for further analysis by ELISA. After which whole cell lysates were prepared. Bicinchoninic acid (BCA) assay (Sigma-Aldrich, USA) was used to determine concentration of protein. Thirty μg of protein were loaded onto 10% SDS polyacrylamide electrophoresis gels. The gels were transferred onto nitrocellulose membranes prior to immunodetection processing with anti-p-IkB-alpha, anti-H2AX (Cell Signaling Technology, USA), and with anti-rabbit IgG peroxidase conjugated secondary antibodies. […]
structure (smiles),measurement,setting,value
"CC1=C(C=O)C(C)(C)CC=C1 [Safranal, 2,6,6-trimethylcyclohexa-1,3-diene-1-carbaldehyde]",iNOS positive cells,"[1]; HCC (DEN/2-AAF) rats + safranal high dose 50 mg/kg b.wt. oral, 12 weeks",2.57 ± 0.30^b positive cells/field
same,iNOS positive cells,"[1]; HCC (DEN/2-AAF) rats + safranal low dose 25 mg/kg b.wt. oral, 12 weeks",5.09 ± 0.26^a&b positive cells/field
same,iNOS positive cells,"[1]; safranal alone 50 mg/kg b.wt. oral, no DEN (group 2)",0.87 ± 0.04 positive cells/field
same,HDAC activity in liver,"[2]; low/high doses of safranal, DEN-treated (groups 4-5)",restored HDAC activity to the normal range
same,HDAC activity in liver,"[2]; safranal alone (group 2), compared to control",did not change HDAC activity
same,"cytotoxicity at 24 h, 1 mM",[3],~70%
same,HepG2 cells viability,[4],significant dose-dependent reduction
same,level of p-IkB protein,[5],transiently decreased
